Where two headings read alike, the source gives them in different places.
Legend:
C57BL/KsJ db/+ mice = tested on: C57BL/KsJ db/+ mice
Method: The induction of hair loss following treatment with certain anticancer drugs, such as cyclophosphamide or doxorubicin, is well documented (A. Tierney & J. Taylor (1991) Nurs. Stand 5:29-31; R. R. Love, et al. (1989) Cancer 63:604-612; B. W. Cline (1984) Cancer Nurs. 7:221-228). The following experiment was performed to determine the effect of n-butyl cyanoacrylate on hair regrowth in mice pre-treated with cyclophosphamide or doxorubicin. Twenty mice of strain C57BL/KsJ db/+ were peritoneally injected with either cyclophosphamide in PBS (20 mg per kilogram of body weight) or Doxorubicin in PBS (2 mg per kilogram of body weight) for 10 consecutive days. Then a single 10 μl dose of n-butyl cyanoacrylate was applied topically to an area of the shaved dorsum of each animal. Control mice, which were injected with PBS alone, were treated similarly. The effects of hair regrowth were determined both by phototrichogram (macroscopic observation using photography) and by folliculogram (microscopic observation of histological changes in the treated and untreated skin).

[1] = tested on: C57BL/KsJ db/+ and C57BL/KsJ db/db mice; test: Effect of isobutyl cyanoacrylate on hair growth, topical; format: in vivo, mouse; conditions: for Hair growth: 10 μl cm^−2 topical
Method: The following experiment was performed to identify the effect of isobutyl cyanoacrylate, a structural analog of n-butyl cyanoacrylate, on hair growth. The shaved backs of C57BL/KsJ db/+ and C57BL/KsJ db/db mice were treated topically at a dose of 10 μl cm^−2 with either isobutyl cyanoacrylate (Sigma Chemical Co., St Louis, Mo.) or n-butyl cyanoacrylate.

[2] = tested on: C57BL/KsJ db/+ and C57BL/KsJ db/db mice; test: Effect of isobutyl cyanoacrylate on hair growth, topical; format: in vivo, mouse
hair growth = test: Hair growth stimulation by comparison agents; conditions: in vivo

O=P1(N(CCCl)CCCl)NCCCO1 (stereo not shown) [cyclophosphamide, reference compound]
pigmentation of new hair and skin in pre-treated animals (C57BL/KsJ db/+ mice; pre-treatment with the anticancer drug, then topical n-butyl cyanoacrylate): lack of pigmentation in the new growth hairs

COc1cccc2c1C(=O)c1c(O)c3c(c(O)c1C2=O)C[C@@](O)(C(=O)CO)C[C@@H]3O[C@H]1C[C@H](N)[C@H](O)[C@H](C)O1 [doxorubicin, reference compound]
pigmentation of new hair and skin in pre-treated animals (C57BL/KsJ db/+ mice; mouse, in vivo): normal pigmentation

C=C(C#N)C(=O)OCC(C)C [isobutyl cyanoacrylate]
Hair growth ([1]; C57BL/KsJ db/+): 3+ (high hair regeneration with an area larger than 50% of the treated area) | Hair growth ([1]; C57BL/KsJ db/db): 3+ (high hair regeneration with an area larger than 50% of the treated area) | hair growth response compared with that of n-butyl cyanoacrylate ([1]; both strains): nearly identical | time at which hair growth was visible ([1]; both strains, post treatment): 8 to 12 days | time at which hair reached full length ([1]; both strains, post treatment): 15 to 18 days | time at which many new hair follicles occurred in treated area ([1]; both strains, post treatment): 2 to 3 days | response compared with hair growth induced by n-butyl cyanoacrylate (mice and rats; mice and rats): very similar | hair growth in normal intact skin, in skin of animals pre-treated with anticancer drugs, and at edges of wounds (mice and rats; two species (rat and mouse), seven strains of mouse): stimulate hair growth | hair growth on dorsum (photograph) ([2]; C57BL/KsJ +/+ mouse, 19 days post application): “T” pattern of hair growth | hair growth response to formulation with about 0.01% monomethyl hydroquinone ([2]; several strains of mice): positive response

CCCCOC(=O)CCCCCCCCC(=O)OCCCC [sebacic acid dibutyl ester]
stimulation of hair growth (hair growth): not effective in stimulating hair growth

Reference: patent US20020065314A1, “COMPOSITIONS AND METHOD FOR STIMULATING HAIR GROWTH” (priority 1995, published 2002)
